{"source": "paper PMC4718592", "about": "“Identification of Novel HLA-A*24:02-Restricted Epitope Derived from a Homeobox Protein Expressed in Hematological Malignancies” (PLoS ONE, 2016)"}
{"tested_on": "HLA-A24", "assay": "Peptide stability assay on CIR-A24 cells (brefeldin A)", "assay_type": "binding", "settings": "50 μg/mL peptide + 5 μg/mL β2-microglobulin, 24 hours, then 50 μg/mL brefeldin A for 4 hours, FITC anti-HLA-A24 staining, MFI with peptide / MFI without peptide, average of the two assays", "description": "(§1) We assessed the binding ability of candidate peptides to HLA-A24 as described previously. CIR-A24 cells were incubated with 50 μg/mL peptides and 5μg/ mL of β2-microglobulin in serum-free media for 24 hours. After washing with PBS, the expression of HLA-A24 was measured by staining the cells with FITC-conjugated anti-HLA-A24 antibody (Mitsubishi-Kagaku, Tokyo, Japan). We also checked the stability of candidate peptides bound to the HLA-A24 molecule. CIR-A24 cells were incubated with 50 μg/mL peptides and 5 μg/mL of β2-microglobulin in serum-free media for 24 hours, followed by addition of 50 μg/ mL of brefeldin A (Sigma-Aldrich) for 4 hours. The expression of HLA-A24 was detected by staining the cells with FITC-conjugated anti-HLA-A24 antibody (Mitsubishi). MFI (mean fluorescence intensity) ratio was calculated as follows; MFI of CIR-A24 pulsed with each candidate peptide / MFI of CIR-A24 without peptide."}
{"compound": "AFTPIQLQEL [PEPP2^140-149]", "Stability MFI ratio": 0.851}
{"compound": "CSQYMTSSL [PEPP2^7-15]", "Stability MFI ratio": 1.041}
{"compound": "DMNAMVSL [PEPP2^27-35]", "Stability MFI ratio": 0.831}
{"compound": "DYFWDHSHS [PEPP2^231-239]", "Stability MFI ratio": 0.869}
{"compound": "EFGPFPFVI [PEPP2^271-279]", "Stability MFI ratio": 1.201}
{"compound": "ERIFQREQF [PEPP2^150-158]", "Stability MFI ratio": 0.690}
{"compound": "FTPLQLQEL [PEPP2^141-149]", "Stability MFI ratio": 0.687}
{"compound": "FVIVPSFTF [PEPP2^277-285]", "Stability MFI ratio": 0.928}
{"compound": "GGAGVPGHL [PEPP2^81-89]", "Stability MFI ratio": 0.785}
{"compound": "KWRRHQRAL [PEPP2^188-196, PEPP2-derived candidate peptide …]", "Stability MFI ratio": 0.714}
{"compound": "LQDMNAMVL [PEPP2^25-33]", "Stability MFI ratio": 0.761}
{"compound": "LQLQELERI [PEPP2^144-152]", "Stability MFI ratio": 0.738}
{"compound": "MPPFPPPSL [PEPP2^246-254]", "Stability MFI ratio": 0.914}
{"compound": "PFPPPSLPL [PEPP2^248-256]", "Stability MFI ratio": 0.926}
{"compound": "QCSQYMTSL [PEPP2^6-14]", "Stability MFI ratio": 0.614}
{"compound": "QGTAAGEKL [PEPP2^52-60]", "Stability MFI ratio": 0.938}
{"compound": "QLQELERIF [PEPP2^145-153]", "Stability MFI ratio": 1.071}
{"compound": "QYMTSLLSPA [PEPP2^9-18]", "Stability MFI ratio": 0.865}
{"compound": "QYSRPQGAV [PEPP2^117-125]", "Stability MFI ratio": 0.977}
{"compound": "RALMARNML [PEPP2^194-202]", "Stability MFI ratio": 0.599}
{"compound": "RPQGAVGGL [PEPP2^120-128]", "Stability MFI ratio": 0.754}
{"compound": "SLPLPLMLL [PEPP2^253-261]", "Stability MFI ratio": 1.103}
{"compound": "TYGPVFMCL [EBV, reference compound]", "Stability MFI ratio": 1.320}
{"compound": "VHAFTPLQL [PEPP2^138-146]", "Stability MFI ratio": 0.748}
{"tested_on": "PBMNCs from HD", "assay": "PEPP2 expression after demethylating agent, healthy donor PBMNCs", "assay_type": "cell-based, human", "settings": "PBMCs from healthy donor, 200 nM for 72 hours"}
{"compound": "Nc1ncn([C@H]2C[C@H](O)[C@@H](CO)O2)c(=O)n1", "note": "[5-aza-2′-deoxycytidine]", "PEPP2 gene and protein expression after treatment": "did not change"}
{"tested_on": "PL21 cells", "assay": "not given", "settings": "flow cytometry"}
{"compound": "Nc1ncn([C@H]2C[C@H](O)[C@@H](CO)O2)c(=O)n1", "note": "[5-aza-2′-deoxycytidine]", "HLA-class I expression after treatment": "up-regulated"}
{"tested_on": "PL21 cells", "assay": "not given", "settings": "flow cytometry, confirmed by quantitative PCR"}
{"compound": "Nc1ncn([C@H]2C[C@H](O)[C@@H](CO)O2)c(=O)n1", "note": "[5-aza-2′-deoxycytidine]", "PD-L1 expression level after treatment": "slightly up-regulated"}
{"tested_on": "HLA-A24", "assay": "Peptide binding assay on CIR-A24 cells", "settings": "50 μg/mL peptide + 5 μg/mL β2-microglobulin, serum-free media, 24 hours, FITC anti-HLA-A24 staining, MFI with peptide / MFI without peptide, average of the two assays", "description": "as §1"}
{"compound": "AFTPIQLQEL [PEPP2^140-149]", "Binding MFI ratio": 1.363}
{"compound": "CSQYMTSSL [PEPP2^7-15]", "Binding MFI ratio": 1.103}
{"compound": "DMNAMVSL [PEPP2^27-35]", "Binding MFI ratio": 0.936}
{"compound": "DYFWDHSHS [PEPP2^231-239]", "Binding MFI ratio": 0.889}
{"compound": "EFGPFPFVI [PEPP2^271-279]", "Binding MFI ratio": 1.153}
{"compound": "ERIFQREQF [PEPP2^150-158]", "Binding MFI ratio": 0.747}
{"compound": "FTPLQLQEL [PEPP2^141-149]", "Binding MFI ratio": 0.860}
{"compound": "FVIVPSFTF [PEPP2^277-285]", "Binding MFI ratio": 1.181}
{"compound": "GGAGVPGHL [PEPP2^81-89]", "Binding MFI ratio": 0.852}
{"compound": "KWRRHQRAL [PEPP2^188-196, PEPP2-derived candidate peptide …]", "Binding MFI ratio": 0.772}
{"compound": "LQDMNAMVL [PEPP2^25-33]", "Binding MFI ratio": 0.768}
{"compound": "LQLQELERI [PEPP2^144-152]", "Binding MFI ratio": 0.695}
{"compound": "MPPFPPPSL [PEPP2^246-254]", "Binding MFI ratio": 0.985}
{"compound": "PFPPPSLPL [PEPP2^248-256]", "Binding MFI ratio": 1.069}
{"compound": "QCSQYMTSL [PEPP2^6-14]", "Binding MFI ratio": 0.724}
{"compound": "QGTAAGEKL [PEPP2^52-60]", "Binding MFI ratio": 0.820}
{"compound": "QLQELERIF [PEPP2^145-153]", "Binding MFI ratio": 0.767}
{"compound": "QYMTSLLSPA [PEPP2^9-18]", "Binding MFI ratio": 1.354}
{"compound": "QYSRPQGAV [PEPP2^117-125]", "Binding MFI ratio": 0.882}
{"compound": "RALMARNML [PEPP2^194-202]", "Binding MFI ratio": 0.954}
{"compound": "RPQGAVGGL [PEPP2^120-128]", "Binding MFI ratio": 0.746}
{"compound": "SLPLPLMLL [PEPP2^253-261]", "Binding MFI ratio": 1.277}
{"compound": "TYGPVFMCL [EBV, reference compound]", "Binding MFI ratio": 1.204}
{"compound": "VHAFTPLQL [PEPP2^138-146]", "Binding MFI ratio": 0.992}
{"tested_on": "PBMNCs from HLA-A*24:02-positive healthy donor", "assay": "not given", "settings": "PBMNCs pretreated for 72 hours, 51Cr release", "description": "(§2) PL21 and HL60 cells and PBMNCs from HD were cultured in AIM-V medium (Life Technologies) supplemented with 10% human serum (Lonza, Walkersville, MD) in 6-well culture plates and 200 nM of 5-aza-2′-deoxycytidine (Sigma-Aldrich) was added every 24 hours for 72 hours.\n(§3) The cytotoxic activity of the CTLs was measured using a standard ^51Cr release assay. Target cells were labeled with 50 μCi of ^51Cr (PerkinElmer Inc., Waltham, MA) for 60 min at 37°C. CIR-A24 cells were then incubated with 5 μg/mL of peptide for 1 hour. For the blocking assay, KMS21 cells were treated with mouse anti-HLA class I antibody (w6/32; eBioscience, San Diego, CA) or mouse IgG isotype antibody (eBioscience). The target cells were mixed with effector cells. After 4 hours, supernatants were transferred to LumaPlates (PerkinElmer) and allowed to air dry in a hood overnight. Plates were sealed and counted in MicroBeta® Trilux instrument (PerkinElmer). Percent specific lysis for ^51Cr release was calculated as [(experimental ^51Cr release—spontaneous ^51Cr release) / (maximum ^51Cr release—spontaneous ^51Cr release)] x 100."}
{"compound": "Nc1ncn([C@H]2C[C@H](O)[C@@H](CO)O2)c(=O)n1", "note": "[5-aza-2′-deoxycytidine]", "Recognition of treated normal PBMNCs by PEPP2-specific CTLs": "didn’t recognize"}
{"tested_on": "PL21 cells", "assay": "51Cr release cytotoxicity of PEPP2-specific CTLs against drug-pretreated PL21 cells", "settings": "PL21 pretreated for 72 hours", "description": "as §2, §3"}
{"compound": "Nc1ncn([C@H]2C[C@H](O)[C@@H](CO)O2)c(=O)n1", "note": "[5-aza-2′-deoxycytidine]", "Cytotoxicity of PEPP2-specific CTLs against treated cells compared with non-treated cells": "enhanced cytotoxicity"}
{"tested_on": "CIR-A24 cells", "assay": "51Cr release cytotoxicity assay of PEPP2-specific CTLs against peptide-pulsed cells", "assay_type": "cell-based", "settings": "4 hours, targets pulsed with 5 μg/mL peptide", "from_the_text": "(§4) The target cells were mixed with effector cells."}
{"compound": "EFGPFPFVI [PEPP2^271-279]", "Lysis of peptide-pulsed C1R-A24 cells by PEPP2-specific CTLs": "could lyse C1R-A24 cells only when the target cells were pulsed"}
{"tested_on": "CIR-A24 cells", "assay": "51Cr release cytotoxicity assay of PEPP2-specific CTLs against peptide-pulsed cells", "assay_type": "cell-based", "settings": "CIR-A24 pulsed with various concentrations of peptide, E/T ratio of 30", "from_the_text": "as §4"}
{"compound": "EFGPFPFVI [PEPP2^271-279]", "Dose dependence of recognition by CTLs": "peptide dose-dependent"}
{"tested_on": "leukemia cells", "assay": "Viability of leukemia cells after drug treatment", "settings": "data not shown"}
{"compound": "Nc1ncn([C@H]2C[C@H](O)[C@@H](CO)O2)c(=O)n1", "note": "[5-aza-2′-deoxycytidine]", "Viability of leukemia cells after treatment with the drug": "more than 90%"}
{"tested_on": "HL60 and PL21 cells", "assay": "PEPP2 expression after demethylating agent, leukemia cell lines (RT-PCR, quantitative PCR, immunohistochemistry)", "assay_type": "cell-based", "settings": "HL60 and PL21, 200 nM for 72 hours, RT-PCR / quantitative PCR"}
{"compound": "Nc1ncn([C@H]2C[C@H](O)[C@@H](CO)O2)c(=O)n1", "note": "[5-aza-2′-deoxycytidine]", "PEPP2 gene expression after treatment": "significantly up-regulated"}
{"tested_on": "HL60 and PL21 cells", "assay": "PEPP2 expression after demethylating agent, leukemia cell lines (RT-PCR, quantitative PCR, immunohistochemistry)", "assay_type": "cell-based", "settings": "treated vs untreated cells, 200 nM for 72 hours, immunohistochemistry"}
{"compound": "Nc1ncn([C@H]2C[C@H](O)[C@@H](CO)O2)c(=O)n1", "note": "[5-aza-2′-deoxycytidine]", "PEPP2 protein expression after treatment": "increased"}
{"tested_on": "HLA-A*24:02 positive lymphocytes isolated from healthy donors", "assay": "Induction of PEPP2 peptide-specific CTLs from PBMCs of healthy donors", "assay_type": "cell-based, human", "settings": "HLA-A*24:02 positive healthy donor lymphocytes stimulated with peptide-pulsed DC and PHA blasts; IFN-γ ELISpot", "description": "CTLs were generated by in vitro stimulation with peptide-pulsed autologous dendritic cells and phytohemagglutinin (PHA) blasts. Briefly, PBMNCs were isolated from whole blood of HLA-A*24:02-positive HD by Ficoll density gradient centrifugation. Dendritic cells (DC) were generated by isolating CD14^+ cells using a MACS separation system (Miltenyi Biotec, Bergisch Gladbach, Germany). The CD14^+ cells were cultured in AIM-V medium supplemented with 10% human serum, 100 ng/mL of IL-4 (R&D Systems) and 100 ng/mL of GM-CSF (R&D Systems) for 5 days, then 20 ng/mL of TNF-α (R&D Systems) was added to generate DC. PHA blasts were derived from CD14^- cells by culturing in AIM-V medium supplemented with 10% human serum, 100 units of IL-2 and 1μ g/mL of PHA for 2 days. The DC or PHA blasts were pulsed with 50μg/L of peptide at room temperature for 3 hours and then irradiated (mediXtec, Chiba, Japan). On day 0, CD14^- cells were stimulated with irradiated peptide-pulsed DC in AIM-V medium with 10% human serum supplemented with 10 ng/mL of IL-7 (R&D Systems), then 50 ng/mL of IL-2 was added every 2 to 3 days. The cells were stimulated weekly with irradiated peptide-pulsed autologous PHA blasts, then CD3^+CD8^+ cells were purified with immunomagnetic beads (Miltenyi Biotec).\nIFN-γ secretion of CTLs in response to target cells was detected using ELISpot assay. Briefly, effector cells were incubated with target cells in plates coated with anti-IFNγ antibody (1-D1K; Mabtech Inc., Cincinnati, OH). After incubation for 20 hours, biotinylated antibody specific for IFN γ (7-B6-1; Mabtech) was added for 2 hours at room temperature and then streptavidin-alkaline phosphatase (Mabtech) was added for 1 hour. To develop spots, nitroblue tetrazolium and 5-bromo-4-chloro-3-indolyl phosphate (Biorad) were added and the color development was stopped by rinsing with distilled water. The resulting spots were counted using a CTL-ImmunoSpot® analyzer (Cellular Technology Ltd., Shaker Heights, OH)"}
{"compound": "AFTPIQLQEL [PEPP2^140-149]", "Induction of PEPP2-specific CTL": "could not induce PEPP2-specific CTL"}
{"compound": "EFGPFPFVI [PEPP2^271-279]", "Induction of PEPP2-specific CTL": "could induce PEPP2-specific CTL"}
{"compound": "SLPLPLMLL [PEPP2^253-261]", "Induction of PEPP2-specific CTL": "could not induce PEPP2-specific CTL"}
